Reference: patent US9884823B2, “Oxime ether acetate compound, preparation method therefor and weeding application thereof” (ZHEJIANG UNIVERSITY OF TECHNOLOGY, priority 2014, dated 2018)
Read-outs that look alike come from different tables or passages of the source.

Columns and labels:
Wheat = experiment: Culture dish method (general screening); assay type: in vivo; conditions: 100 mg/L, 7 days
Source text: (§3) Culture dish method (general screening): The test targets were radish, cucumber, rape, wheat, sorghum and barnyard grass; the seeds of wheat, sorghum and radish were germinated in advance, and the uniform emerge-germinating seeds were used in the test.

Chinese sorghum = experiment: Culture dish method (general screening); assay type: in vivo; conditions: 100 mg/L, 7 days
Source text: as §3

Barnyardgrass [1] = experiment: Culture dish method (general screening); assay type: in vivo, barnyard grass; conditions: 100 mg/L, 7 days
Source text: as §3

Cucumber = experiment: Culture dish method (general screening); assay type: in vivo; conditions: 100 mg/L, 7 days
Source text: as §3

Rape [2] = experiment: Culture dish method (general screening); assay type: in vivo; conditions: 100 mg/L, 7 days
Source text: as §3

Radish = experiment: Culture dish method (general screening); assay type: in vivo; conditions: 100 mg/L, 7 days
Source text: as §3

Abutilon = experiment: Potted plants live body test; assay type: in vivo
Source text: (§1) The raw drug which was selected from the compounds in table 1 was weighed using an analytical balance (0.0001 g), and dissolved in DMF containing 1 wt % Tween-80 emulsifier to prepare a mother liquor of raw drug with a mass concentration of 1.0˜5.0%, and then diluted with distilled water, to prepare preparations at desired concentrations according to the ratio of ingredients in Examples 8, 9 and 10.
(§2) The test targets were mustard, small quinoa, Abutilon, amaranthus retroflexus, Eclipta prostrata, crabgrass, dog point. A pot with a diameter of 7.5 cm was used, filled with composite soil (garden soil:nursery matrix, 1:2, v/v) to ¾ of the pot, then the above […] kinds of weeds targets were directly seeded (germination rate ≧85%), covered with soil at a thickness of 0.2 cm. When the weeds grew to 3-leaf stage, pre-emergence soil treatment for weeds planting, and then spraying was performed.

Crabgrass = experiment: Potted plants live body test; assay type: in vivo
Source text: as §1, §2

Dog point = experiment: Potted plants live body test; assay type: in vivo
Source text: as §1, §2

Eclipta prostrata = experiment: Potted plants live body test; assay type: in vivo; conditions: for efficiency, Eclipta prostrata: 30 days, Table 9
Source text: as §1, §2

amaranthus retroflexus = experiment: Potted plants live body test; assay type: in vivo
Source text: as §1, §2

Barnyardgrass [3] = experiment: Potted plants live body test; assay type: in vivo, barnyard grass
Small quinoa = conditions: 150 g a.i./ha, 30 days, Table 9
Source text: as §1, §2

[4] = test system: broadleaf weeds such as mustard, small quinoa, Abutilon, Amaranthus retroflexus and Eclipta prostrate; conditions: 150 g a.i./ha; for herbicidal activity on broadleaf weeds targets: 30 days after administration, Table 9 summary; for activity on the growth of broadleaf weeds: postemergence spraying, vs clear water control
Source text: as §1, §2

[5] = test system: grass weeds such as crabgrass, barnyard grass, dog point; conditions: for activity for grass targets such as crabgrass and dog point: 30 days after administration, Table 9 summary; for activity on grass weeds such as crabgrass, dog point: postemergence spraying, 30 days
Source text: as §1, §2

Mustard = conditions: 150 g a.i./ha, 30 days, Table 9
weeds = conditions: pre-emergence soil treatment; dose lowered below 150 g a.i./ha
Source text: as §1, §2

Corn = conditions: post-emergence spray treatment
Soybean = conditions: 150 g a.i./ha; post-emergence spray treatment
Cotton = conditions: 150 g a.i./ha; post-emergence spray treatment
Rice = conditions: 150 g a.i./ha; post-emergence spray treatment
Rape [6] = conditions: 150 g a.i./ha; post-emergence spray treatment
Barley = conditions: post-emergence spray treatment
[7] = postemergence spraying, 150 g a.i./ha, Table 10
[8] = Postemergence spraying, 150 g a.i./ha, 30 days, Table 9
[9] = Pre-emergence soil treatment, 150 g a.i./ha, 30 days, Table 9
[10] = Postemergence spraying, 150 g a.i./ha
[11] = Pre-emergence soil treatment, 150 g a.i./ha
[12] = Pre-emergence soil treatment, 37.5 g a.i./ha
[13] = Pre-emergence soil treatment, 75 g a.i./ha
[14] = Pre-emergence soil treatment, 150 g a.i./ha, Table 10
[15] = postemergence spraying, 37.5 g a.i./ha
[16] = postemergence spraying, 75 g a.i./ha

## COc1cc(OC)nc(Oc2ccccc2CNc2ccc(C(=O)OC(C)C)cc2)n1 [Pyribambenz isopropyl, reference compound]
Wheat
  inhibition rate, Wheat Root: 95%
  inhibition rate, Wheat Stem: 95%
Chinese sorghum
  inhibition rate, Chinese sorghum Root: 100%
  inhibition rate, Chinese sorghum Stem: 90%
Barnyardgrass [1]
  inhibition rate, Barnyardgrass Root: 100%
  inhibition rate, Barnyardgrass Stem: 95%
Cucumber
  inhibition rate, Cucumber Root: 95%
  inhibition rate, Cucumber Stem: 90%
Rape [2]
  inhibition rate, Rape Root: 100%
  inhibition rate, Rape Stem: 100%
Radish
  inhibition rate, Radish Root: 100%
  inhibition rate, Radish Stem: 90%
Abutilon; [7]
  efficiency, Abutilon: 0%
Crabgrass; [7]
  efficiency, Crabgrass: 50%
Dog point; [7]
  efficiency, Dog point: 80%
Eclipta prostrata; [7]
  efficiency, Eclipta prostrate: 0%
Amaranthus retroflexus; [7]
  efficiency, amaranthus retroflexus: 70%
Barnyardgrass [3]; [7]
  efficiency, Barnyardgrass: 50%

## CON=C(C(=O)OC)c1ccccc1COc1cccc(-c2ncccc2C)c1 [Compound 83]
Wheat
  inhibition rate, Wheat Root: 60%
  inhibition rate, Wheat Stem: 20%
Chinese sorghum
  inhibition rate, Chinese sorghum Root: 80%
  inhibition rate, Chinese sorghum Stem: 30%
Barnyardgrass [1]
  inhibition rate, Barnyardgrass Root: 80%
  inhibition rate, Barnyardgrass Stem: 0%
Cucumber
  inhibition rate, Cucumber Root: 80%
  inhibition rate, Cucumber Stem: 30%
Rape [2]
  inhibition rate, Rape Root: 80%
  inhibition rate, Rape Stem: 50%
Radish
  inhibition rate, Radish Root: 50%
  inhibition rate, Radish Stem: 50%
Abutilon; [8]
  efficiency, Abutilon: 30%
Abutilon; [9]
  efficiency, Abutilon: 0%
Crabgrass; [8]
  efficiency, Crabgrass: 0%
Crabgrass; [9]
  efficiency, Crabgrass: 0%
Dog point; [8]
  efficiency, Dog point: 0%
Dog point; [9]
  efficiency, Dog point: 0%
Eclipta prostrata; [10]
  efficiency, Eclipta prostrata: 0%
Eclipta prostrata; [11]
  efficiency, Eclipta prostrata: 0%
Amaranthus retroflexus; [8]
  efficiency, amaranthus retroflexus: 20%
Amaranthus retroflexus; [9]
  efficiency, amaranthus retroflexus: 20%
Small quinoa; Postemergence spraying
  efficiency, Small quinoa: 50%
Small quinoa; Pre-emergence soil treatment
  efficiency, Small quinoa: 30%
[4]
  herbicidal activity on broadleaf weeds targets: herbicidal activity
[4]; 30 days
  activity on the growth of broadleaf weeds: inhibitory activity
[5]; 150 g a.i./ha
  activity for grass targets such as crabgrass and dog point: poor activity
  activity on grass weeds such as crabgrass, dog point: almost have no activity
Mustard; Postemergence spraying
  efficiency, Mustard: 0%
Mustard; Pre-emergence soil treatment
  efficiency, Mustard: 0%

## CON=C(C(=O)OC)c1ccccc1COc1cccc(-c2ccc(Cl)cn2)c1 [Compound 19]
Wheat
  inhibition rate, Wheat Root: 30%
  inhibition rate, Wheat Stem: 0%
Chinese sorghum
  inhibition rate, Chinese sorghum Root: 80%
  inhibition rate, Chinese sorghum Stem: 30%
Barnyardgrass [1]
  inhibition rate, Barnyardgrass Root: 70%
  inhibition rate, Barnyardgrass Stem: 30%
Cucumber
  inhibition rate, Cucumber Root: 90%
  inhibition rate, Cucumber Stem: 70%
Rape [2]
  inhibition rate, Rape Root: 100%
  inhibition rate, Rape Stem: 100%
Radish
  inhibition rate, Radish Root: 80%
  inhibition rate, Radish Stem: 80%
Abutilon; [8]
  efficiency, Abutilon: 40%
Abutilon; [9]
  efficiency, Abutilon: 0%
Crabgrass; [8]
  efficiency, Crabgrass: 0%
Crabgrass; [9]
  efficiency, Crabgrass: 0%
Dog point; [8]
  efficiency, Dog point: 0%
Dog point; [9]
  efficiency, Dog point: 0%
Eclipta prostrata; [10]
  efficiency, Eclipta prostrata: 50%
Eclipta prostrata; [11]
  efficiency, Eclipta prostrata: 0%
Amaranthus retroflexus; [8]
  efficiency, amaranthus retroflexus: 50%
Amaranthus retroflexus; [9]
  efficiency, amaranthus retroflexus: 30%
Small quinoa; Postemergence spraying
  efficiency, Small quinoa: 60%
Small quinoa; Pre-emergence soil treatment
  efficiency, Small quinoa: 25%
[4]
  herbicidal activity on broadleaf weeds targets: herbicidal activity
[4]; 30 days
  activity on the growth of broadleaf weeds: inhibitory activity
[5]; 150 g a.i./ha
  activity for grass targets such as crabgrass and dog point: poor activity
  activity on grass weeds such as crabgrass, dog point: almost have no activity
Mustard; Postemergence spraying
  efficiency, Mustard: 50%
Mustard; Pre-emergence soil treatment
  efficiency, Mustard: 0%

## CON=C(C(=O)OC)c1ccccc1COc1ccc(-c2ncc(Cl)cc2Cl)cc1 [Compound 133]
Wheat
  inhibition rate, Wheat Root: 50%
  inhibition rate, Wheat Stem: 0%
Chinese sorghum
  inhibition rate, Chinese sorghum Root: 100%
  inhibition rate, Chinese sorghum Stem: 100%
Barnyardgrass [1]
  inhibition rate, Barnyardgrass Root: 100%
  inhibition rate, Barnyardgrass Stem: 100%
Cucumber
  inhibition rate, Cucumber Root: 100%
  inhibition rate, Cucumber Stem: 100%
Rape [2]
  inhibition rate, Rape Root: 100%
  inhibition rate, Rape Stem: 100%
Radish
  inhibition rate, Radish Root: 100%
  inhibition rate, Radish Stem: 100%
Abutilon; [8]
  efficiency, Abutilon: 100%
Abutilon; [12]
  efficiency, Abutilon: 0%
Abutilon; [13]
  efficiency, Abutilon: 0%
Abutilon; [9]
  efficiency, Abutilon: 100%
Abutilon; [14]
  efficiency, Abutilon: 100%
Abutilon; [15]
  efficiency, Abutilon: 100%
Abutilon; [16]
  efficiency, Abutilon: 100%
Abutilon; [7]
  efficiency, Abutilon: 100%
Abutilon; postemergence treatment, over doses 150, 75, 37.5 g a.i./ha
  efficiency on Abutilon: 100%
Crabgrass; [8]
  efficiency, Crabgrass: 0%
Crabgrass; [12]
  efficiency, Crabgrass: 0%
Crabgrass; [13]
  efficiency, Crabgrass: 0%
Crabgrass; [9]
  efficiency, Crabgrass: 50%
Crabgrass; [14]
  efficiency, Crabgrass: 50%
Crabgrass; [15]
  efficiency, Crabgrass: 0%
Crabgrass; [16]
  efficiency, Crabgrass: 0%
Crabgrass; [7]
  efficiency, Crabgrass: 0%
Dog point; [8]
  efficiency, Dog point: 0%
Dog point; [12]
  efficiency, Dog point: 0%
Dog point; [13]
  efficiency, Dog point: 0%
Dog point; [9]
  efficiency, Dog point: 50%
Dog point; [14]
  efficiency, Dog point: 50%
Dog point; [15]
  efficiency, Dog point: 0%
Dog point; [16]
  efficiency, Dog point: 0%
Dog point; [7]
  efficiency, Dog point: 0%
Eclipta prostrata; [10]
  efficiency, Eclipta prostrata: 100%
Eclipta prostrata; [12]
  efficiency, Eclipta prostrate: 0%
Eclipta prostrata; [13]
  efficiency, Eclipta prostrate: 0%
Eclipta prostrata; [11]
  efficiency, Eclipta prostrata: 100%
Eclipta prostrata; [14]
  efficiency, Eclipta prostrate: 100%
Eclipta prostrata; [15]
  efficiency, Eclipta prostrate: 97.5%
Eclipta prostrata; [16]
  efficiency, Eclipta prostrate: 100%
Eclipta prostrata; [7]
  efficiency, Eclipta prostrate: 100%
Amaranthus retroflexus; [8]
  efficiency, amaranthus retroflexus: 100%
Amaranthus retroflexus; [12]
  efficiency, amaranthus retroflexus: 20%
Amaranthus retroflexus; [13]
  efficiency, amaranthus retroflexus: 30%
Amaranthus retroflexus; [9]
  efficiency, amaranthus retroflexus: 100%
Amaranthus retroflexus; [14]
  efficiency, amaranthus retroflexus: 100%
Amaranthus retroflexus; [15]
  efficiency, amaranthus retroflexus: 100%
Amaranthus retroflexus; [16]
  efficiency, amaranthus retroflexus: 100%
Amaranthus retroflexus; [7]
  efficiency, amaranthus retroflexus: 100%
Barnyardgrass [3]; [12]
  efficiency, Barnyardgrass: 0%
Barnyardgrass [3]; [13]
  efficiency, Barnyardgrass: 0%
Barnyardgrass [3]; [14]
  efficiency, Barnyardgrass: 0%
Barnyardgrass [3]; [15]
  efficiency, Barnyardgrass: 0%
Barnyardgrass [3]; [16]
  efficiency, Barnyardgrass: 0%
Barnyardgrass [3]; [7]
  efficiency, Barnyardgrass: 0%
Small quinoa; Postemergence spraying
  efficiency, Small quinoa: 100%
Small quinoa; Pre-emergence soil treatment
  efficiency, Small quinoa: 100%
[4]; 30 days
  inhibition rate on the growth of broadleaf weeds: 100%
  activity on the growth of broadleaf weeds: inhibitory activity
[4]
  herbicidal activity on broadleaf weeds targets: herbicidal activity
[5]; 150 g a.i./ha
  activity for grass targets such as crabgrass and dog point: poor activity
  activity on grass weeds such as crabgrass, dog point: almost have no activity
[5]; postemergence treatment, 150, 75, 37.5 g a.i./ha
  activity on crabgrass, barnyard grass, dog point: not good activity or no activity
[5]; pre-emergence soil treatment, 150 g a.i./ha
  activity on grass weeds: not good activity
weeds
  activity on 6 kinds of weed targets: significantly decreased activity or no activity
Mustard; Postemergence spraying
  efficiency, Mustard: 100%
Mustard; Pre-emergence soil treatment
  efficiency, Mustard: 100%
Corn; 150 g a.i./ha
  Crop inhibition rate, Corn: 0%
Corn
  crop safety for corns: safer
Soybean
  Crop inhibition rate, Soybean: 40%
Cotton
  Crop inhibition rate, Cotton: 50%
Rice
  Crop inhibition rate, Rice: 30%
Rape [6]
  Crop inhibition rate, Rape: 100%
Barley; 150 g a.i./ha
  Crop inhibition rate, Barley: 0%
Barley
  crop safety for barleys: safer
